{
  "source": "ChEMBL document CHEMBL4732083",
  "about": "“Synthesis and anti-inflammatory activity of saponin derivatives of δ-oleanolic acid” (Eur J Med Chem, 2021)",
  "key": {"[1]": {"biological_target": "AMP-activated protein kinase, AMPK (Homo sapiens) (UniProt P54646+O43741+P54619+Q9UGJ0+Q9Y478+Q13131+Q9UGI9)", "assay": "Activation of AMPK in human Huh-7 cells assessed as increase in AMPK phosphorylation at Thr172 residue at 10 uM measured after 12 hrs by Western blot analysis", "assay_type": "cell-based", "conditions": "filed as activator"}, "THP-1 [2]": {"tested_on": "THP-1", "assay": "Antiinflammatory activity in human THP-1 cells assessed as reduction in LPS-induced TNF alpha secretion at 10 uM incubated for 12 hrs measured by ELISA", "assay_type": "functional, cell-based"}, "THP-1 [3]": {"tested_on": "THP-1", "assay": "Antiinflammatory activity in human THP-1 cells assessed as reduction in LPS-induced IL6 secretion at 10 uM incubated for 12 hrs measured by ELISA", "assay_type": "functional, cell-based"}, "[4]": {"assay": "Metabolic stability in human liver microsomes assessed as half life in presence of NADPH by LC-MS analysis", "assay_type": "ADME, Microsome"}, "[5]": {"assay": "Metabolic stability in mouse liver microsomes assessed as half life in presence of NADPH by LC-MS analysis", "assay_type": "ADME, Microsome"}, "[6]": {"assay": "Metabolic stability in human liver microsomes assessed as intrinsic clearance in presence of NADPH by LC-MS analysis", "assay_type": "ADME, Microsome", "conditions": "read-out: CLH"}, "[7]": {"assay": "Metabolic stability in mouse liver microsomes assessed as intrinsic clearance in presence of NADPH by LC-MS analysis", "assay_type": "ADME, Microsome", "conditions": "read-out: CLH"}, "[8]": {"assay": "Tmax in BALB/c mouse at 10 mg/kg, po by LC/MS-MS analysis", "assay_type": "ADME, organism-based", "conditions": "in vivo"}, "[9]": {"assay": "Tmax in BALB/c mouse at 2 mg/kg, iv by LC/MS-MS analysis", "assay_type": "ADME, organism-based", "conditions": "in vivo"}, "[10]": {"assay": "Cmax in BALB/c mouse at 10 mg/kg, po by LC/MS-MS analysis", "assay_type": "ADME, organism-based", "set-up": "route oral, dose 10 mg/kg", "conditions": "in vivo"}, "[11]": {"assay": "Cmax in BALB/c mouse at 2 mg/kg, iv by LC/MS-MS analysis", "assay_type": "ADME, organism-based", "set-up": "route intravenous, dose 2 mg/kg", "conditions": "in vivo"}, "[12]": {"assay": "AUC (0 to t) in BALB/c mouse at 10 mg/kg, po by LC/MS-MS analysis", "assay_type": "ADME, organism-based", "set-up": "dose 10 mg/kg", "conditions": "in vivo"}, "[13]": {"assay": "AUC (0 to t) in BALB/c mouse at 2 mg/kg, iv by LC/MS-MS analysis", "assay_type": "ADME, organism-based", "set-up": "dose 2 mg/kg", "conditions": "in vivo"}, "[14]": {"assay": "AUC (0 to infinity) in BALB/c mouse at 10 mg/kg, po by LC/MS-MS analysis", "assay_type": "ADME, organism-based", "set-up": "route oral, time infinity, dose 10 mg/kg", "conditions": "in vivo"}, "[15]": {"assay": "AUC (0 to infinity) in BALB/c mouse at 2 mg/kg, iv by LC/MS-MS analysis", "assay_type": "ADME, organism-based", "set-up": "route intravenous, time infinity, dose 2 mg/kg", "conditions": "in vivo"}, "[16]": {"assay": "Half life in BALB/c mouse at 10 mg/kg, po by LC/MS-MS analysis", "assay_type": "ADME, organism-based", "conditions": "in vivo"}, "[17]": {"assay": "Half life in BALB/c mouse at 2 mg/kg, iv by LC/MS-MS analysis", "assay_type": "ADME, organism-based", "conditions": "in vivo"}, "[18]": {"assay": "Bioavailability in BALB/c mouse at 10 mg/kg, po by LC/MS-MS analysis", "assay_type": "ADME, organism-based", "conditions": "in vivo"}},
  "note": "Activity calls are given as the source filed them. No cut-off for these calls is given here.",
  "data": [
    {"smiles": "C[C@@H]1CC[C@]2(C(=O)O)CC[C@]3(C)C(=CC[C@@H]4[C@@]5(C)CC[C@H](O[C@@H]6OC[C@H](O)[C@H](O)[C@H]6O)C(C)(C)[C@@H]5CC[C@]43C)[C@@H]2[C@]1(C)O", "values": [
      {"measurement": "Activity", "setting": "[1]", "value": "Active"}
    ]},
    {"smiles": "CC1(C)[C@@H](O)CC[C@]2(C)[C@H]3C(=O)C=C4[C@@H]5C[C@@](C)(C(=O)O)CC[C@]5(C)CC[C@@]4(C)[C@]3(C)CC[C@@H]12", "values": [
      {"measurement": "Activity", "setting": "[1]", "value": "Active"}
    ]},
    {"smiles": "C[C@H]1[C@H](C)CC[C@]2(C(=O)O)CC[C@]3(C)C(=CC[C@@H]4[C@@]5(C)C[C@@H](O)[C@H](O)C(C)(C)[C@@H]5CC[C@]43C)[C@H]12", "values": [
      {"measurement": "Activity", "setting": "[1]", "value": "Active"}
    ]},
    {"smiles": "CC1(C)CC[C@]2(C(=O)O)CC[C@]3(C)C(=C2C1)CC[C@@H]1[C@@]2(C)CC[C@H](O[C@@H]4OC[C@H](O)[C@H](O)[C@H]4O[C@@H]4O[C@H](CO)[C@@H](O)[C@H](O)[C@H]4O)C(C)(C)[C@@H]2CC[C@]13C", "values": [
      {"measurement": "Activity", "setting": "THP-1 [2]", "value": "Active"},
      {"measurement": "Activity", "setting": "THP-1 [3]", "value": "Active"}
    ]},
    {"smiles": "CC1(C)CC[C@]2(C(=O)O)CC[C@]3(C)C(=C2C1)CC[C@@H]1[C@@]2(C)CC[C@H](O[C@@H]4OC[C@H](O)[C@H](O)[C@H]4O[C@@H]4OC[C@@H](O)[C@H](O)[C@H]4O)C(C)(C)[C@@H]2CC[C@]13C", "values": [
      {"measurement": "half-life", "setting": "[4]", "value": "> 120", "unit": "min"},
      {"measurement": "half-life", "setting": "[5]", "value": "> 120", "unit": "min"},
      {"measurement": "CLint scaled", "setting": "[6]", "value": 3.25, "unit": "mL/min/kg"},
      {"measurement": "CLint scaled", "setting": "[7]", "value": 2.34, "unit": "mL/min/kg"},
      {"measurement": "Tmax", "setting": "[8]", "value": 45, "unit": "min"},
      {"measurement": "Tmax", "setting": "[9]", "value": 4.8, "unit": "min"},
      {"measurement": "Cmax", "setting": "[10]", "value": 54.2, "unit": "ng/mL"},
      {"measurement": "Cmax", "setting": "[11]", "value": 8820, "unit": "ng/mL"},
      {"measurement": "AUC(0-t)", "setting": "[12]", "value": 145, "unit": "ng·h/mL"},
      {"measurement": "AUC(0-t)", "setting": "[13]", "value": 2570, "unit": "ng·h/mL"},
      {"measurement": "AUC(0-inf)", "setting": "[14]", "value": 151, "unit": "ng·h/mL"},
      {"measurement": "AUC(0-inf)", "setting": "[15]", "value": 2590, "unit": "ng·h/mL"},
      {"measurement": "half-life", "setting": "[16]", "value": 75.6, "unit": "min"},
      {"measurement": "half-life", "setting": "[17]", "value": 135, "unit": "min"},
      {"measurement": "bioavailability", "setting": "[18]", "value": 1.13, "unit": "%"}
    ]},
    {"smiles": "C[C@@H]1O[C@@H](O[C@H]2[C@H](O[C@H]3CC[C@@]4(C)[C@@H](CC[C@]5(C)[C@@H]4CC=C4[C@@H]6CC(C)(C)CC[C@]6(C(=O)O[C@@H]6O[C@H](CO[C@@H]7O[C@H](CO)[C@@H](O[C@@H]8O[C@@H](C)[C@H](O)[C@@H](O)[C@H]8O)[C@H](O)[C@H]7O)[C@@H](O)[C@H](O)[C@H]6O)CC[C@]45C)[C@]3(C)CO)OC[C@H](O)[C@@H]2O)[C@H](O)[C@H](O)[C@H]1O", "values": [
      {"measurement": "Activity", "setting": "[1]", "value": "Active"}
    ]},
    {"smiles": "CC1(C)CC[C@]2(C(=O)O[C@@H]3O[C@H](CO[C@@H]4O[C@H](CO)[C@@H](O)[C@H](O)[C@H]4O)[C@@H](O)[C@H](O)[C@H]3O)CC[C@]3(C)C(=CC[C@@H]4[C@@]5(C)CC[C@H](O[C@@H]6OC[C@H](O)[C@H](O)[C@H]6O)[C@@](C)(CO)[C@@H]5CC[C@]43C)[C@@H]2C1", "values": [
      {"measurement": "Activity", "setting": "[1]", "value": "Active"}
    ]},
    {"smiles": "CC1(C)CC[C@]2(C(=O)O)CC[C@]3(C)C(=CC[C@@H]4[C@@]5(C)CC[C@H](O)C(C)(C)[C@@H]5CC[C@]43C)[C@@H]2C1", "values": [
      {"measurement": "Activity", "setting": "[1]", "value": "Active"}
    ]},
    {"smiles": "O=C(c1ccc(F)cc1)C1CCN(CCn2c(=O)[nH]c3ccccc3c2=O)CC1", "note": "[KETANSERIN]", "values": [
      {"measurement": "half-life", "setting": "[4]", "value": 42.4, "unit": "min"},
      {"measurement": "half-life", "setting": "[5]", "value": 19.3, "unit": "min"},
      {"measurement": "CLint scaled", "setting": "[6]", "value": 41, "unit": "mL/min/kg"},
      {"measurement": "CLint scaled", "setting": "[7]", "value": 283, "unit": "mL/min/kg"}
    ]},
    {"smiles": "CC1(C)[C@@H](O[C@H]2O[C@H](C(=O)O)[C@@H](O)[C@H](O)[C@H]2O[C@@H]2O[C@H](C(=O)O)[C@@H](O)[C@H](O)[C@H]2O)CC[C@]2(C)[C@H]3C(=O)C=C4[C@@H]5C[C@@](C)(C(=O)O)CC[C@]5(C)CC[C@@]4(C)[C@]3(C)CC[C@@H]12", "values": [
      {"measurement": "Activity", "setting": "[1]", "value": "Active"}
    ]},
    {"smiles": "C[C@H]1[C@H](C)CC[C@]2(C(=O)O)CC[C@]3(C)C(=CC[C@@H]4[C@@]5(C)C[C@@H](O)[C@H](O)[C@@](C)(CO)[C@@H]5[C@H](O)C[C@]43C)[C@H]12", "values": [
      {"measurement": "Activity", "setting": "[1]", "value": "Active"}
    ]},
    {"smiles": "C=C(C)[C@@H]1CC[C@]2(C(=O)O)CC[C@]3(C)[C@H](CC[C@@H]4[C@@]5(C)CC[C@H](O)C(C)(C)[C@@H]5CC[C@]43C)[C@@H]12", "values": [
      {"measurement": "Activity", "setting": "[1]", "value": "Active"}
    ]}
  ]
}
